From patent US20080113908A1, “Use of CRF receptor agonists for the treatment or Prophylaxis of diseases, for example Neurodegenerative diseases” (SmithKline Beecham plc, priority 2000, published 2008)

Legend:
[1] = tested on: cerebellar granule neurones; experiment: Assay 3: intracellular cyclic AMP enzyme immunoassay; assay type: cell-based, rat; settings: agonist 0 to 30 nM, 15 min, 0.5 mM IBMX
Method: Assay 3: The production of cAMP by the CRF receptor agonist peptides CRF, urotensin 1, urocortin and sauvagine was measured as follows. This assay can be used analogously for any putative CRF receptor agonists including non-peptide agonists.
Intracellular cyclic AMP was measured with a cAMP 2-site enzyme immunoassay system (trade mark BIOTRAK, commercially available from Amersham Pharmacia Biotech, PO Box 164, Rainham, Essex RM13 8JZ, United Kingdom, Amersham catalogue number RPN225), based upon the use of a sensitive and highly specific capture antibody for cyclic AMP:
Cerebellar granule neurones were seeded in polylysine-coated […] plates, 3.5×10^5 cells per 48-well, in Basal medium Eagle's containing 10% fetal calf serum, 25 mM KCl, and antibiotics. At 8-9 days in vitro, granule neurone cultures were shifted to serum-free plating medium (0.4 ml) with 0.5 mM IBMX (to inhibit the breakdown of cyclic AMP) for 15 min (37° C.). Wells then received 0.1 ml of test peptide (5× final concentration). Generally 1 μM is the preferable final concentration for a putative CRF agonist under test, though different (e.g. lower) concentrations can be used as shown for the peptide agonists in FIG. 3. Incubation was continued for 15 min. Test medium was removed and the plate placed on dry ice, and stored at −140° C. Cyclic AMP analysis was performed the following day.
Cells were then lysed with the reagent provided with the BIOTRAK kit. Intracellular content of cyclic AMP in the lysates was assayed following the manufacturer's instructions. A standard curve was constructed using the cyclic AMP calibration provided, with the quantity of bound cyclic AMP being inversely proportional to the amount of second (chromogenic) antibody bound to the reaction wells. The colour product was read with an ELISA plate reader, and was a function of the amount of cyclic AMP in the unknown sample.

GSK-3β = experiment: Western blot of serine-9-phosphorylated GSK-3β (FIG. 5); assay type: cell-based, rat; settings: compound alone, 2 hours; CRF 10 nM, LY 294002 75 μM, FSK 30 μM
Text: It was thought that CRF receptor agonists might interact with the PI 3-kinase signalling pathway and exert their neuroprotective effect by phosphorylating and inhibiting the protein GSK-3β,which is pro-apoptotic (M. Pap and G. M. Cooper, J. Biol. Chem., 273(32), 19929-19932, 1998; and M. Hetman et al. J. Neurosci., 1st Apr. 2000, 20(7), 2567-2574; discussed hereinabove). In order to confirm this, the level of GSK-3β phosphorylated at serine-9 (e.g. see D. A. E. Cross, Nature, 378, 785-789, 1995) in control cultures of cerebellar granule neurones was measured using Western blots, and compared to the level of phospho-GSK-3β in the presence of CRF as a model CRF receptor agonist and/or in the presence of the PI 3-kinase inhibitor LY 294002. In order to determine whether elevation of cAMP was involved in any effect, the level of phospho-GSK-3β in cultures in the presence of the known cAMP-elevating agent forskolin (FSK, obtainable e.g. from Calbiochem.) with or without LY 294002 present was also measured. The forskolin acts as a benchmark for cAMP-related effects.
The method used was as follows. […]
Phosphorylation of GSK-3β was detected using an antibody to serine-9-phosphorylated GSK-3β (anti-phospho-GSK-3β (Ser9)) available as catalogue no. […]

Substance: H-SQEPPISLDLTFHLLREVLEMTKADQLAQQAHNNRKLLDIA-NH2 [CRF]
- cAMP synthesis induced by agonist (FIG. 3) [1]: cAMP production increased with agonist concentration
- phospho-GSK-3β level compared to control CN (GSK-3β): increase in basal phospho-GSK-3β
